Results reported in patent US4980377A, “1-(aminophenyl)-2-aminopropanone derivatives” (Laboratoire L. Lafon, priority 1984, dated 1990).
Entries after “also recorded” stand apart in the source; their conditions may differ.

Tests used:
mice [1] = assay: Motility reduced by hypoxic aggression; assay type: in vivo, mouse; conditions: i.p.
Procedure: Half an hour after they have received CRL 41 153, the mice (10 per dose, 20 control animals) are subjected to acute hypobaric anoxia [pressure reduction of 600 mm Hg (i.e. about 8×10^4 Pa) in 90 seconds; release of vacuum in 45 seconds] and are then placed in an actimeter, where their motility is recorded for 10 minutes.

mice [2] = assay: Interaction with barbital; assay type: in vivo, mouse; conditions: i.p., barbital 220 mg/kg
Procedure: Half an hour after the administration of CRL 41 153, groups of 10 mice receive an intraperitoneal injection of barbital (220 mg/kg).

mice [3] = assay: Interaction with reserpine; assay type: in vivo, mouse; conditions: i.p.
Procedure: Four hours after the intraperitoneal injection of 2.5 mg/kg of reserpine, groups of 6 mice receive CRL 41 153.

CNS = assay: Neuropsychopharmacological profile as a whole; assay type: in vivo, mice and rats
Procedure: (§1) In the neuropsychopharmacological study which follows, a solution of CRL 41 153 in distilled water (pH 1.5) was administered intraperitoneally in a volume of 20 ml/kg to male mice and 5 ml/kg to male rats.

dogs = assay: Cardiovascular study in anesthetized dogs; assay type: in vivo, dog
Procedure: Two dogs (average weight: 14.1 kg), anesthetized with nembutal, receive CRL 41 194 by intraduodenal administration at successive doses of 0.1 mg/kg, 0.5 mg/kg, 1 mg/kg, 2.5 mg/kg, 5 mg/kg and 10 mg/kg (in solution in physiological solvent).
The blood pressure, the heart rate, the blood flow through the femoral artery, the blood flow through the vertebral artery and the rectal temperature are measured. The coloration of the skin and the coloration of the bile, collected by catheterization of the bile duct after ligature of the cystic duct, are observed.
4 dogs (average weight: 14 kg), anesthetized with nembutal, receive CRL 41 221 by intraduodenal administration at successive doses of 0.1 mg/kg, 0.5 mg/kg, 1 mg/kg, 2.5 mg/kg, 5 mg/kg and 10 mg/kg. The blood pressure, the heart rate, the blood flow through the femoral artery, the blood flow through the vertebral artery and the rectal temperature are measured. The coloration of the skin is observed.

[4] = test system: gravid White New Zealand female rabbits; assay: Teratogenicity in gravid White New Zealand rabbits; assay type: in vivo, rabbit; conditions: day 5 to day 18 of gestation; for Affected foetuses, %: normal limit 1.5%
Procedure: The protocol used comprised administering to gravid White New Zealand female rabbits (weighing each about 2900-3000 grams before gestation) a daily dose of 0 (batch of control animals), 5,10 or 50 mg/kg of each product to be tested by gastrogavage from day 5 to day 18 of gestation, then carrying out a cesarean operation on day 29 of gestation in order to enumerate:
(i) the total number of foestuses, and
(ii) the total number of foestuses presenting at least one malformation.
To appreciate the results of such a protocol it must be noted that natural malformations may occur. Statistically, the percentage of foetuses presenting at least one malformation in any control batch of gravid White New Zealand female rabbits is lower than or equal to 1.5% with respect to the total number of foetuses.
To be precise in this protocol a malformation comprises at least one of the following cases: articular limb blocade, anorous foetus, deviated tail, shorter tail, skull deformation, exemcephalia.

rats [5] = assay: Interaction with amphetamine; assay type: in vivo, rat; conditions: i.p.
Procedure: Amphetamine (2 mg/kg) is injected intraperitoneally into groups of 6 rats 30 minutes after the administration of CRL 41 153. […] 4 mg/kg and 16 mg/kg, CRL 41 153 potentiates the intensity and duration of the stereotypies induced by amphetamine.

mice [6] = assay: Behavioral despair; assay type: in vivo, mouse; conditions: forcibly immersed mice, i.p.
Source text: Half an hour after they have received CRL 41 153, groups of 6 mice are placed in a beaker filled with water to a height of 6 cm. The total period of immobility between the 2nd and 6th minutes following immersion is noted.

[7] = pH of solutions in distilled water; assay type: physicochemical
Procedure: The neuropsychopharmacological study was undertaken according to the procedures described above for CRL 41 153, CRL 41 213 being adminstered intraperitoneally, in solution in distilled water, in a volume of 20 ml/kg to male mice and a volume of 5 ml/kg to male rats, and the pH of the injected solution varying with the concentration of CRL 41 213 according to the data given in Table II below.

rats [8] = assay: Interaction with apomorphine in rats; assay type: in vivo, rat; conditions: i.p.
Procedure: CRL 41 153 is administered to groups of 6 rats 0.5 hour before the subcutaneous injection of 0.5 mg/kg of apomorphine.

mice [9] = assay: Motility reduced by habituation to the enclosure; assay type: in vivo, mouse; conditions: i.p.
Procedure: After they have stayed In the actimeters for 18 hours, (he mice (6 per dose, 12 control animals) receive CRL 41 153. They are immediately returned to their respective enclosures and, half an hour later, their motility is recorded for 30 minutes.

mice [10] = assay: Interaction with apomorphine in mice; assay type: in vivo, mouse; conditions: i.p.
Procedure: Groups of 6 mice receive CRL 41 153 0.5 hour before the subcutaneous injection of 1 or 16 mg/kg of apomorphine.

mice [11] = assay: Interaction with oxotremorine; assay type: in vivo, mouse; conditions: i.p.
Procedure: CRL 41 153 is administered to groups of 6 mice 0.5 hour before the intraperitoneal injection of 0.5 mg/kg of oxotremorine.

mice [12] = assay: Overall behavior and reactivities in mice; assay type: in vivo, mouse; conditions: dose not stated
Procedure: as §1
(§2) Groups of three animals are observed before and then 0.25 hour, 0.50 hour, 1 hour, 2 hours, 3 hours and 24 hours after the administration of CRL 41 153.

mice [13] = assay: Spontaneous motility; assay type: in vivo, mouse; conditions: i.p.
Procedure: 0.5 hour after they have received CRL 41 153, the mice (6 per dose, 12 control animals) are placed in an actimeter, where their motility is recorded for 30 minutes.

rats [14] = assay: Overall behavior and reactivities in rats; assay type: in vivo, rat; conditions: dose not stated
Procedure: as §1, §2

[15] = anesthetized dogs, intraduodenal
[16] = 12.8 g/liter in distilled water
[17] = ≤0.05 g/liter in distilled water

## CC(C(=O)c1ccc(N)cc1)N(C)C (centres unmarked) [CRL 41 233]
Mice [1]
  Motor recovery of mice after hypobaric hypoxia: improvement in the motor recovery
Mice [2]
  Duration of the sleep induced by barbital: a decrease in the duration of the sleep induced by barbital
Mice [3]
  Effect on hypothermia induced by reserpine: antagonism of the hypothermia
CNS; conclusion of the tests
  Antidepressant effects (overall): antidepressant and stimulant properties
  Stimulant effects (overall): antidepressant and stimulant properties
dogs
  Vasodilator (conclusion): vasodiating properties; also recorded: vasodilating properties
dogs; anesthetized dogs
  Rectal temperature: large increase in the rectal temperature
dogs; [15]
  Femoral flow: increases the femoral and vertebral flows as from a dose of 5 mg/kg
  Heart rate: the tachycardiac effect appearing at 10 mg/kg
  Vertebral flow: increases the femoral and vertebral flows as from a dose of 5 mg/kg
[4]; 5 mg/kg daily
  Affected foetuses, number: 1
  Total foetuses (live): 89
  Affected foetuses, %: 1.12%
[4]; 10 mg/kg daily
  Affected foetuses, number: 0
  Total foetuses (live): 85
  Affected foetuses, %: 0%
Rats [5]
  Effect on stereotypies induced by amphetamine: potentiation of the stereotypies
Mice [6]
  Period of immobility due to despair: a decrease in the period of immobility
[7]; 0.1 g/liter in distilled water
  pH: 5.0
[7]; 0.2 g/liter in distilled water
  pH: 4.5
[7]; 0.4 g/liter in distilled water
  pH: 4.0
[7]; 0.8 g/liter in distilled water
  pH: 3.5
[7]; 1.6 g/liter in distilled water
  pH: 3.0
[7]; 3.2 g/liter in distilled water
  pH: 2.5
[7]; 6.4 g/liter in distilled water
  pH: 2.0
[7]; [16]
  pH: 1.5
[7]; 50 g/liter in distilled water
  pH: 1.0
[7]; [17]
  pH: 5.5
Rats [8]
  Effect on stereotypies induced by apomorphine: potentiation of the stereotypies
Mice [9]
  Motor activity of mice accustomed to their enclosure: resumption in the motor activity of mice accustomed to their enclosure
Mice [10]
  Effect on hypothermia induced by apomorphine: antagonism of the hypothermia
Mice [11]
  Effect on hypothermic action of oxotremorine: antagonism of the hypothermia
Mice [12]
  Overall behavior: observed effects (summary): excitation with hyperreactivity in mice and rats
  Stereotype movements (summary): the presence of stereotype movements in mice and rats
Mice [13]
  Spontaneous motor activity: an increase in the spontaneous motor activity of mice
Rats [14]
  Overall behavior: observed effects (summary): excitation with hyperreactivity in mice and rats
  Stereotype movements (summary): the presence of stereotype movements in mice and rats

## CC(NC1CC1)C(=O)c1ccc(N)cc1 (centres unmarked) [CRL 41 246]
Mice [1]
  Motor recovery of mice after hypobaric hypoxia: improvement in the motor recovery
Mice [2]
  Duration of the sleep induced by barbital: a reduction in the duration of the sleep induced by barbital
Mice [3]
  Effect on hypothermia induced by reserpine: antagonism of the hypothermia
  Effect on ptosis induced by reserpine: antagonism of the ptosis induced by reserpine
CNS; conclusion of the tests
  Antidepressant effects (overall): antidepressant effects
  Stimulant effects (overall): stimulant effects
  α-adrenergic stimulant effects (overall): α-adrenergic stimulant effects
CNS; species and dose not stated
  Peripheral α-adrenergic signs (mydriasis, salivation, lacrimation, exophthalmos): mydriasis; also recorded: salivation
dogs
  Vasodilator (conclusion): vasodiating properties
[4]; 5 mg/kg daily
  Affected foetuses, number: 1
  Total foetuses (live): 89
  Affected foetuses, %: 1.12%
[4]; 10 mg/kg daily
  Affected foetuses, number: 0
  Total foetuses (live): 94
  Affected foetuses, %: 0%
Rats [5]
  Effect on stereotypies induced by amphetamine: potentiation of the stereotypies
Mice [6]
  Period of immobility due to despair: a reduction in the period of immobility
[7]; 0.1 g/liter in distilled water
  pH: 5.0
[7]; 0.4 g/liter in distilled water
  pH: 4.5
[7]; 0.8 g/liter in distilled water
  pH: 4.0
[7]; 1.6 g/liter in distilled water
  pH: 3.5
[7]; 6.4 g/liter in distilled water
  pH: 3.0
[7]; [16]
  pH: 2.5
[7]; [17]
  pH: 5.5
Rats [8]
  Effect on stereotypies induced by apomorphine: potentiation of the stereotypies
Mice [9]
  Motor activity of mice accustomed to their enclosure: resumption in the motor activity of mice accustomed to their enclosure
Mice [10]
  Effect on hypothermia induced by apomorphine: antagonism of the hypothermia
Mice [11]
  Effect on hypothermic action of oxotremorine: antagonism of the hypothermia
  Effect on trembling induced by oxotremorine: antagonism of the trembling induced by oxotremorine
Mice [12]
  Overall behavior: observed effects (summary): excitation with hyperreactivity in mice and rats
  Stereotype movements (summary): the presence of stereotype movements in mice and rats
Mice [13]
  Spontaneous motor activity: an increase in the spontaneous motor activity of mice
Rats [14]
  Overall behavior: observed effects (summary): excitation with hyperreactivity in mice and rats
  Stereotype movements (summary): the presence of stereotype movements in mice and rats
